Results taken from patent US20150361087A1, “ANTIVIRAL COMPOUNDS” (Gilead Sciences, Inc., priority 2014, published 2015).
Like-named read-outs stand apart in the source and are kept apart here.

How the values were obtained:
[1] = test system: HCV 1b RLuc replicon cells (genotype 1b Conl replicon); assay: Renilla luciferase HCV replicon reporter assay, genotype 1b; type: cell-based; settings: stable replicon cells, 72 hours, RLuc readout
Method: (§1) Evaluation of cell-based anti-HCV activity: Antiviral potency (EC50) was determined using a Renilla luciferase (RLuc)-based HCV replicon reporter assay. To perform the assay for genotype 1 and 2a JFH-1, stable HCV 1a RLuc replicon cells (harboring a dicistronic genotype 1a H77 replicon that encodes a RLuc reporter), stable HCV 1b RLuc replicon cells (harboring a dicistronic genotype 1b Conl replicon that encodes a RLuc reporter), or stable HCV 2a JFH-1 Rluc replicon cells (harboring a dicistronic genotype 2a JFH-1 replicon that encodes a RLuc reporter; with L31 present in NS5A) were dispensed into 384-well plates for EC50 assays. To perform the assay for genotype 2a (with M31 present in NS5A) or 2b, NS5A chimeric genotype 2a JFH-1 replicons that encodes a RLuc-Neo reporter and either genotype 2a J6 strain NS5A gene or genotype 2b MD2b-1 strain NS5A gene (both with M31 present) respectively, were either transiently transfected (t) into Huh-Lunet cells or were established as stably replicating replicon cells (s) is provided. Either cells were dispensed into 384-well plates for EC50 assays. To perform the assay for genotype 3 and 4, NS5A chimeric genotype 1b Conl replicons that encodes a Pi-RLuc reporter and either genotype 3a S52 strain NS5A gene or genotype 4a ED43 strain NS5A gene respectively, were transiently transfected (t) into Huh-Lunet cells, which were subsequently dispensed into 384-well plates. Compounds were dissolved in DMSO at a concentration of 10 mM and diluted in DMSO either manually or using an automated pipeting instrument. Serially 3-fold diluted compounds were either manually mixed with cell culture media and added to the seeded cells or directly added to the cells using an automated instrument. DMSO was used as a negative (solvent; no inhibition) control, and the protease inhibitor ITMN-191 was included at a concentration >100×EC50 as a positive control. 72 hours later, cells were lysed and Renilla luciferase activity quantified as recommended by the manufacturer (Promega-Madison, Wis.). Non-linear regression was performed to calculate EC50 values.

[2] = test system: HCV 1a RLuc replicon cells (genotype 1a H77 replicon); assay: Renilla luciferase HCV replicon reporter assay, genotype 1a; type: cell-based; settings: stable replicon cells, 72 hours, RLuc readout
Method: as §1

[3] = test system: HCV 2a JFH-1 Rluc replicon cells (L31 present in NS5A); assay: Renilla luciferase HCV replicon reporter assay, genotype 2a JFH-1; type: cell-based; settings: stable replicon cells, 72 hours
Method: as §1

[4] = test system: NS5A chimeric genotype 2a JFH-1 replicon with genotype 2b MD2b-1 strain NS5A gene (M31); assay: Renilla luciferase HCV replicon reporter assay, genotype 2b; type: cell-based
Method: as §1

[5] = test system: NS5A chimeric genotype 1b Conl replicon with genotype 3a S52 strain NS5A gene; assay: Renilla luciferase HCV replicon reporter assay, genotype 3a; type: cell-based
Method: as §1

[6] = test system: NS5A chimeric genotype 1b Conl replicon with genotype 4a ED43 strain NS5A gene; assay: Renilla luciferase HCV replicon reporter assay, genotype 4a; type: cell-based; settings: Hepatitis C virus, 72 h, read-out: 4a (s) (nM)
Method: (§2) Evaluation of cell-based anti-HCV activity: Antiviral potency (EC50) was determined using a Renilla luciferase (RLuc)-based HCV replicon reporter assay. To perform the assay for genotype 1 and 2a JFH-1, stable HCV 1a RLuc replicon cells (harboring a dicistronic genotype 1a H77 replicon that encodes a RLuc reporter), stable HCV 1b RLuc replicon cells (harboring a dicistronic genotype 1b Conl replicon that encodes a RLuc reporter), or stable HCV 2a JFH-1 Rluc replicon cells (harboring a dicistronic genotype 2a JFH-1 replicon that encodes a RLuc reporter; with L31 present in NS5A) were dispensed into 384-well plates for EC50 assays. To perform the assay for genotype 2a (with M31 present in NS5A) or 2b, NS5A chimeric genotype 2a JFH-1 replicons that encodes a RLuc-Neo reporter and either genotype 2a J6 strain NS5A gene or genotype 2b MD2b-1 strain NS5A gene (both with M31 present) respectively, were either transiently transfected (t) into Huh-Lunet cells or were established as stably replicating replicon cells (s) is provided. Either cells were dispensed into 384-well plates for EC50 assays. […] 72 hours later, cells were lysed and Renilla luciferase activity quantified as recommended by the manufacturer (Promega-Madison, Wis.). […]

[7] = test system: Y93H in genotype 1a NS5A (1a Pi-Rluc replicon); assay: Replicon assay against resistance mutant 1a Y93H; type: cell-based, HCV
Method: (§3) Evaluation of cell-based anti-HCV activity: Antiviral potency (EC50) was determined using a Renilla luciferase (RLuc)-based HCV replicon reporter assay. To perform the assay for genotype 1 and 2a JFH-1, stable HCV 1a RLuc replicon cells (harboring a dicistronic genotype 1a H77 replicon that encodes a RLuc reporter), stable HCV 1b RLuc replicon cells (harboring a dicistronic genotype 1b Conl replicon that encodes a RLuc reporter), or stable HCV 2a JFH-1 Rluc replicon cells (harboring a dicistronic genotype 2a JFH-1 replicon that encodes a RLuc reporter; with L31 present in NS5A) were dispensed into 384-well plates for EC50 assays. To perform the assay for genotype 2a (with M31 present in NS5A) or 2b, NS5A chimeric genotype 2a JFH-1 replicons that encodes a RLuc-Neo reporter and either genotype 2a J6 strain NS5A gene or genotype 2b MD2b-1 strain NS5A gene (both with M31 present) respectively, were either transiently transfected (t) into Huh-Lunet cells or were established as stably replicating replicon cells (s) is provided. Either cells were dispensed into 384-well plates for EC50 assays. To perform the assay for genotype 3 and 4, NS5A chimeric genotype 1b Conl replicons that encodes a Pi-RLuc reporter and either genotype 3a S52 strain NS5A gene or genotype 4a ED43 strain NS5A gene respectively, were transiently transfected (t) into Huh-Lunet cells, which were subsequently dispensed into 384-well plates. […] 72 hours later, cells were lysed and Renilla luciferase activity quantified as recommended by the manufacturer (Promega-Madison, Wis.). […]
(§4) To determine the antiviral potency (EC50) against resistance mutants, resistance mutations, including Q30R, Q30E, Y93H, and Y93N in genotype 1a NS5A, and L31V/Y93H in genotype 1b NS5A were introduced individually into either 1a Pi-Rluc or 1b Pi-Rluc replicons by site directed mutagenesis. Replicon RNA of each resistant mutant was transiently transfected into Huh-7-derived cured-51 cells and antiviral potency was determined on these transfected cells as described above.

[8] = test system: Y93N in genotype 1a NS5A (1a Pi-Rluc replicon); assay: Replicon assay against resistance mutant 1a Y93N; type: cell-based, HCV
Method: as §3, §4

3a Y93H = assay: Replicon assay against resistance mutant 3a Y93H; type: cell-based, HCV
[9] = target: NS5A chimeric genotype 2a JFH-1 replicon with genotype 2a J6 strain NS5A gene (M31); assay: Renilla luciferase HCV replicon reporter assay, genotype 2a J6; type: cell-based; settings: transiently transfected (t) into Huh-Lunet cells, 72 hours
Method: as §2

[10] = test system: L31V/Y93H in genotype 1b NS5A (1b Pi-Rluc replicon); assay: Replicon assay against resistance mutant 1b L31V/Y93H; type: cell-based, HCV; settings: transiently transfected Huh-7-derived cured-51 cells
Method: (§5) Evaluation of cell-based anti-HCV activity: Antiviral potency (EC50) was determined using a Renilla luciferase (RLuc)-based HCV replicon reporter assay. To perform the assay for genotype 1 and 2a JFH-1, stable HCV 1a RLuc replicon cells (harboring a dicistronic genotype 1a H77 replicon that encodes a RLuc reporter), stable HCV 1b RLuc replicon cells (harboring a dicistronic genotype 1b Conl replicon that encodes a RLuc reporter), or stable HCV 2a JFH-1 Rluc replicon cells (harboring a dicistronic genotype 2a JFH-1 replicon that encodes a RLuc reporter; with L31 present in NS5A) were dispensed into 384-well plates for EC50 assays. […] 72 hours later, cells were lysed and Renilla luciferase activity quantified as recommended by the manufacturer (Promega-Madison, Wis.). […]
as §4

[11] = test system: Q30E in genotype 1a NS5A (1a Pi-Rluc replicon); assay: Replicon assay against resistance mutant 1a Q30E; type: cell-based, HCV; settings: transiently transfected Huh-7-derived cured-51 cells
Method: as §5, §4

[12] = set-up: species or system Sprague-Dawley (SD) rats; settings: in vivo
Method: IV and PO Single Dose Pharmacokinetic Studies in SD Rats: The pharmacokinetics of selected compounds was characterized in male Sprague-Dawley (SD) rats (250-300 g). In this study, two groups of naïve purebred SD rats (N=3 per group, fasted over night) received the selected compound either as an intravenous (IV) infusion (1 mg/kg over 30 minutes) via the jugular vein or by oral gavage (2 mg/kg). The intravenous (IV) dosing vehicle was 5% ethanol, 35% polyethylene glycol 400 (PEG 400) and 60% water pH 2.0. The oral dosing vehicle was 5% ethanol, 55% PEG 400 and 40% citrate buffer pH 2.2.
Serial blood samples (approximately 0.3 mL each) were collected from jugular vein or other suitable vein at specified time points. […]
A bioanalytical method utilizing high performance liquid chromatography coupled to tandem mass spectrometry (LC/MS/MS) was developed for analysis of the selected compound in rat plasma. Detection was performed using selected reaction monitoring (SRM); Ions representing the precursor (M+H) ^+ species was selected in quadrupole 1 (Q1) and collided with argon gas in the collision cell (Q2) to generate specific product ion, which was subsequently monitored by quadrupole 3 (Q3). Standard curve and quality control samples were prepared in male rat plasma and processed in the same way as the test samples to generate quantitative data. […]

[13] = Hepatitis C virus, 72 h, read-out: 2b (s) (nM)
[14] = Hepatitis C virus, 72 h, read-out: 3a (nM)
[15] = Hepatitis C virus, read-out: 1a Y93H (nM)
[16] = Hepatitis C virus, read-out: 1a Y93N (nM)
[17] = Hepatitis C virus, read-out: 3a Y93H (nM)

Row | SMILES | EC50 ([1]; Hepatitis C virus) | EC50 ([2]; Hepatitis C virus) | EC50 ([3]; Hepatitis C virus) | EC50 [4, 13] | EC50 [5, 14] | EC50 [6] | EC50 [7, 15] | EC50 [8, 16] | EC50 (3a Y93H; [17]) | other results
1 | COC(=O)N[C@H](C(=O)N1[C@@H](C)CC[C@H]1c1ncc(-c2cc3c4c(c2)OCc2cc(-c5cnc([C@@H]6CC[C@H](C)N6C(=O)[C@@H](NC(=O)OC)[C@H]6C[C@@H](C)O[C@@H](C)C6)[nH]5)cc(c2-4)OC3)[nH]1)C1C[C@@H](C)O[C@@H](C)C1 (stereo partly drawn) [Compound 16, dimethyl (r,S,R,1S,1′S)-2,2′-((2S,2′S,5S,5′S)-5,5′-(5,5′-(5,10-dihydrochromeno[5,4,3-cde]chromene-2,7-diyl)bis(1H-imidazole-5,2-diyl))bis(2-methylpyrrolidine-5,1-diyl))bis(1-((2R,4r,6S)-2,6-dimethyltetrahydro-2H-pyran-4-yl)-2-oxoethane-2,1-diyl)dicarbamate] | 0.037 nM | 0.043 nM | 0.013 nM | 0.054 nM | 0.051 nM | 0.025 nM | 0.356 nM | 0.685 nM | 0.145 nM | –
2 | COC(=O)N[C@H](C(=O)N1[C@@H](C)CC[C@H]1c1ncc(-c2cc3c4c(c2)OCc2cc(-c5cnc([C@@H]6CC[C@H](C)N6C(=O)[C@@H](NC(=O)OC)C6C[C@@H](C)O[C@H](C)C6)[nH]5)cc(c2-4)OC3)[nH]1)C1C[C@@H](C)O[C@H](C)C1 (stereo partly drawn) [Compound 14, dimethyl (R,R,1S,1′S)-2,2′-((2S,2′S,5S,5′S)-5,5′-(5,5′-(5,10-dihydrochromeno[5,4,3-cde]chromene-2,7-diyl)bis(1H-imidazole-5,2-diyl))bis(2-methylpyrrolidine-5,1-diyl))bis(1-((2R,6R)-2,6-dimethyltetrahydro-2H-pyran-4-yl)-2-oxoethane-2,1-diyl)dicarbamate] | – | – | – | – | – | – | – | – | – | EC50 [1]: 0.054 nM; EC50 [2]: 0.049 nM; EC50 [3]: 0.011 nM; EC50 [9]: 0.014 nM; EC50 ([4]; transiently transfected (t) into Huh-Lunet cells, 72 hours, read-out: 2b (t)): 0.038 nM; EC50 ([5]; transiently transfected into Huh-Lunet cells, 72 hours, read-out: 3a): 0.04 nM; EC50 [10]: 0.075 nM; EC50 [11]: 0.11 nM; EC50 ([7]; transiently transfected Huh-7-derived cured-51 cells, read-out: 1a Y93H): 0.063 nM; EC50 ([8]; transiently transfected Huh-7-derived cured-51 cells, read-out: 1a Y93N): 0.229 nM; EC50 (3a Y93H; resistance mutant replicon, read-out: 3a Y93H): 0.157 nM; Rat % F [12]: 15%
3 | COC(=O)N[C@H](C(=O)N1CCC[C@H]1c1ncc(-c2cc3c4c(c2)OCc2cc(-c5cnc([C@@H]6CCCN6C(=O)[C@@H](NC(=O)OC)C6C[C@@H](C)O[C@H](C)C6)[nH]5)cc(c2-4)OC3)[nH]1)C1C[C@@H](C)O[C@H](C)C1 (stereo partly drawn) [Compound 15, dimethyl ((1S,1′S)-((2S,2′S)-((5,10-dihydrochromeno [5,4,3-cde]chromene-2,7-diyl)bis(1H-imidazole-5,2-diyl))bis(pyrrolidine-2,1-diyl))bis(1-((2R,6R)-2,6-dimethyltetrahydro-2H-pyran-4-yl)-2-oxoethane-2,1-diyl))dicarbamate] | 0.195 nM | 0.18 nM | 0.024 nM | 0.143 nM | 0.199 nM | 0.07 nM | 0.237 nM | 0.87 nM | 0.361 nM | –
